Assay results from patent US20040048791A1, “Method for treating neoplastic cells using cycloprodigiosin or salt thereof” (priority 2002, published 2004).

Key:
[1] = Oka et al. (2000) FEBS Lett.; cited from earlier work
NF-κB = NF-κB luciferase gene reporter assay (pIG3Luc) in HeLa cells; assay type: cell-based; settings: HeLa cells, FIG. 2A, 2C
From the text: The plasmids, pRKF-IKKα and pRKHA-IKKβ have been described previously (Oka, S., Kamata, H., Kamata, K., Yagisawa, H. and Hirata, H. (2000) FEBS Lett., 472, 196-202). pRKF-IKKαEE and pRK-HA-IKKβEE encode constitutively active mutants of IKKα, in which 176 and 180 serine residues in an activation loop are replaced by glutamic acid residues, and IKKβ, in, which 177 and 181 serine residues are replaced by glutamic acid residues, respectively. A reporter plasmid pIG3Luc for NF-κB encodes triple NF-κB binding site sequences (AGCTTCAGAGGGGACTRANSCRIPTIONCCGAGAGG) (SEQ ID NO: 2) followed by the luciferase gene. A control plasmid, pBKRLuc, was obtained from Toyobo (Toyo B-Net Co., Japan). pcDNAF-MEKK1, pRKF-p65, pEFBOSHA-Rac1-DA, and pEFBOSHA-Cdc42-DA, are the expression plasmids for MEKK1, the NF-κB subunit p65, constitutively active Rac1 and Cdc42, respectively.
Luciferase gene reporter assay and Kinase assays of IKK: HeLa cells were transfected with the reporter plasmids described above using Lipofectin (GIBCO BRL). After 24-48 hr, the luciferase activity was determined using the Luciferase Assay System (Promega). The kinase activity of IKKα and IKKβ were analyzed by immune complex kinase assay as described previously (Oka, S., Kamata, H., Kamata, K., Yagisawa, H. and Hirata, H. (2000) FEBS Lett. 472, 196-202). The substrates was using GST-IκBα(1-55) or GST-p65(399-551).
The gene expression induction by NF-κB activation plays the most important role among “life” signals by TNFα. Therefore, the NF-κB reporter gene was introduced into the cells to analyze the effect of cPrG-HCl by luciferase assay.
NF-κB is translocated into the nucleus also by activation with low-molecular-weight G proteins Rac1 and Cdc42 or MEKK1 and induces gene expression. An activated Rac1, Cdc42 or MEKK1 expression plasmid was introduced together with the NF-κB reporter gene into cells and the effect of cPrG-HCl on NF-κB activation was measured by luciferase assay (FIG. 4A and FIG. 4B).

female ICR mice = assay: Toxicity on intraperitoneal administration to mice; assay type: in vivo; settings: 5 weeks old, 25 to 29 g
[2] = as compared to FCCP
HeLa cells [3] = assay: DNA fragmentation (apoptosis) in HeLa cells; assay type: cell-based; settings: stimulation by TNFα alone, FIG. 1A
Method: (§1) Cell culture: HeLa cells were cultured in Dulbecco's modified Eagle's medium supplemented with 10% fetal bovine serum and 50 μg/ml kanamycin at 37° C. in 5% CO2 in air.
(§2) Assay for apoptotic processes: Cell viability was determined by dye exclusion assay using 0.1% trypan blue. DNA fragmentation was analyzed as described previously (Kawauchi, K. et al. (1997) Biochem. Biophys. Res. Commun. 237, 543-547). In the caspase-3 assay, cells were disrupted by freeze-thaw in an extraction buffer (50 mM Tris-HCl, pH7.4, 1 mM EGTA, 5 mM EDTA, 5 mM MgCl2, 1 mM APMSF, 10 μg/ml pepstatin, 10 μg/ml leupeptin, and 1 mM DTT). Then the suspension was centrifuged at 15,000 rpm for 20 min, and the supernatants obtained were incubated at 37° C. for 60 min in a reaction buffer (50 mM Tris-HCl, pH7.4, 1 mM EDTA, 10 mM EGTA) with 20 μM of the fluorogenic substrate DEVD-AFC (Peptide Institute, Inc., Japan). Cleavage of the substrates was quantified by measuring the fluorescence of 7-amino-4-trifluomethyl coumarin released using a spectrofluorometer (Shimadzu RF5000) with excitation at 380 mn and emission at 460 nm.
HeLa cells were treated with TNFα and cPrG.HCl and the effect of cPrG.HCl on apoptosis was examined by measuring DNA fragmentation and survivability.

HeLa cells [4] = assay: Cell viability by trypan blue dye exclusion assay; assay type: cell-based; settings: stimulation by TNFα alone, FIG. 1A
Method: as §1, §2

In the case of CC(=O)N[C@@H](CS)C(=O)O [N-acetylcysteine], the effect on apoptosis [1] is given as “inhibits”.

In the case of CO/C1=C\C(C)=C\[C@@H](C)[C@@H](O)[C@@H](C)C/C(C)=C/C=C/[C@H](OC)[C@@H]([C@@H](C)[C@@H](O)[C@H](C)[C@@]2(O)C[C@@H](O)[C@H](C)[C@@H](C(C)C)O2)OC1=O [bafilomycin, reference compound], the “TNFα-induced NF-κB activation (gene expression induction, luciferase)” value (NF-κB) is reported as “not suppressed”.

For COC1=CC(c2ccc[nH]2)=N/C1=C\c1[nH]c(C)c2c1C(C)CCC2 (stereo not drawn) [cPrG, Cycloprodigiosin], the LD50 (female ICR mice) was “greater than 10 mg” and the ionophore activity [2] was “no ionophore activity”.

With TNFα the DNA fragmentation (HeLa cells [3]) was “hardly observed” and the “decrease in cell viability” value (HeLa cells [4]) was “hardly observed”.
